Source: patent US20150218212A1, “FLUORINATED EPOXYKETONE-BASED TETRAPEPTIDE COMPOUNDS AND USES THEREOF AS PROTEASOME INHIBITORS” (FLUORINOV PHARMA INC., priority 2012, published 2015)

What was measured:
K-562 = test: NCI screening panel, K-562 (Leukemia); assay type: cell-based, human
Experimental: (§1) Representative compounds of Formula I were screened using the National Cancer Institute (NCI) screening panel, which consists of a panel of human tumor cell lines, representing leukemia, melanoma, and cancers of the lung, colon, ovary, breast, prostate and renal system.
(§2) After 24 h, two plates of each cell line are fixed in situ with TCA, to represent a measurement of the cell population for each cell line at the time of drug addition (Tz). Experimental drugs are solubilised in dimethyl sulfoxide at 400-fold the desired final maximum test concentration and stored frozen prior to use. At the time of drug addition, an aliquot of frozen concentrate is thawed and diluted to twice the desired final maximum test concentration with complete medium containing 50 μg/mL gentamicin. Additional four, 10-fold or ½ log serial dilutions are made to provide a total of five drug concentrations plus control. Aliquots of 100 μl of these different drug dilutions are added to the appropriate microtiter wells already containing 100 μl of medium, resulting in the required final drug concentrations.
(§3) Following drug addition, the plates are incubated for an additional 48 h at 37° C., 5% CO2, 95% air, and 100% relative humidity. For adherent cells, the assay is terminated by the addition of cold TCA (trichloroacetic acid). Cells are fixed in situ by the gentle addition of 50 μl of cold 50% (w/v) TCA (final concentration, 10% TCA) and incubated for 60 minutes at 4° C. The supernatant is discarded, and the plates are washed five times with tap water and air dried. Sulforhodamine B (SRB) solution (100 μl) at 0.4% (w/v) in 1% acetic acid is added to each well, and plates are incubated for 10 minutes at room temperature. After staining, unbound dye is removed by washing five times with 1% acetic acid and the plates are air dried. Bound stain is subsequently solubilised with 10 mM trizma base, and the absorbance is read on an automated plate reader at a wavelength of 515 nm. For suspension cells, the methodology is the same except that the assay is terminated by fixing settled cells at the bottom of the wells by gently adding 50 μl of 80% TCA (final concentration, 16% TCA). Using the seven absorbance measurements [time zero, (Tz), control growth, (C), and test growth in the presence of drug at the five concentration levels (Ti)], the percentage growth is calculated at each of the drug concentrations levels. Percentage growth inhibition is calculated as: [(Ti−Tz)/(C−Tz)]×100 for concentrations for which Ti>/=Tz and [(Ti−Tz)/Tz]×100 for concentrations for which Ti<Tz.
(§4) Three dose response parameters are calculated for each experimental agent. Growth inhibition of 50% (GI50) is calculated from [(Ti−Tz)/(C−Tz)]×100=50, which is the drug concentration resulting in a 50% reduction in the net protein increase (as measured by SRB staining) in control cells during the drug incubation. The drug concentration resulting in total growth inhibition (TGI) is calculated from Ti=Tz. The LC50 (concentration of drug resulting in a 50% reduction in the measured protein at the end of the drug treatment as compared to that at the beginning) indicating a net loss of cells following treatment is calculated from [(Ti−Tz)/Tz]×100=−50. Values are calculated for each of these three parameters if the level of activity is reached. However, if the effect is not reached or is exceeded, the value for that parameter is expressed as greater or less than the maximum or minimum concentration tested.

NCI/ADR-RES = test: NCI screening panel, NCI/ADR-RES (Ovarian Cancer); assay type: cell-based, human
Experimental: as §1, §2, §3, §4

SMILES | Log10GI50 (K-562) | Log10LC50 (K-562) | Log10TGI50 (K-562) | Log10GI50 (NCI/ADR-RES) | Log10LC50 (NCI/ADR-RES) | Log10TGI50 (NCI/ADR-RES)
CC(C)C[C@H](NC(=O)[C@H](COC(F)F)NC(=O)CN1CCOCC1)C(=O)N[C@@H](COC(F)F)C(=O)N[C@@H](CC(C)C)C(=O)[C@@]1(C)CO1 [Example 1, (2S)—N-[(1S)-1-(difluoromethoxymethyl)-2-[[(1S)-3-methyl-1-[(2R)-2-methyloxirane-2-carbonyl]butyl]amino]-2-oxo-ethyl]-2-[[(2S)-3-(difluoromethoxy)-2-[(2-morpholinoacetyl)amino]propanoyl]amino]-4-methyl-pentanamide] | −7.38 | >−4.00 | >−4.00 | −5.10 | >−4.00 | >−4.00
CC(C)C[C@H](NC(=O)[C@H](COC(F)F)NC(=O)CN1CCOCC1)C(=O)N[C@@H](Cc1ccccc1)C(=O)N[C@@H](CC(C)C)C(=O)[C@@]1(C)CO1 [Example 2, (2S)-N-[(1S)-1-benzyl-2-[[(1S)-3-methyl-1-[(2R)-2-methyloxirane-2-carbonyl]butyl]-amino]-2-oxo-ethyl]-2-[[(2S)-3-(difluoromethoxy)-2-[(2-morpholinoacetyl)amino]propanoyl]amino]-4-methyl-pentanamide] | −7.49 | >−4.00 | >−4.00 | −5.80 | >−4.00 | >−4.00
CC(C)C[C@H](NC(=O)[C@H](COC(F)F)NC(=O)CN1CCOCC1)C(=O)N[C@@H](Cc1ccccc1)C(=O)N[C@@H](Cc1ccccc1)C(=O)[C@@]1(C)CO1 [Example 3, (2S)-N-[(1S)-1-benzyl-2-[[(1S)-1-benzyl-2-[(2R)-2-methyloxiran-2-yl]-2-oxo-ethyl]amino]-2-oxo-ethyl]-2-[[(2S)-3-(difluoromethoxy)-2-[(2-morpholinoacetyl)-amino]propanoyl]amino]-4-methyl-pentan-amide] | −7.77 | >−4.00 | >−4.00 | −5.86 | >−4.00 | >−4.00
CC(C)C[C@H](NC(=O)[C@H](COC(F)F)NC(=O)CN1CCOCC1)C(=O)N[C@@H](COC(F)F)C(=O)N[C@@H](Cc1ccccc1)C(=O)[C@@]1(C)CO1 [Example 4, (2S)-N-[(1S)-2-[[(1S)-1-benzyl-2-[(2R)-2-methyloxiran-2-yl]-2-oxo-ethyl]amino]-1-(difluoromethoxymethyl)-2-oxo-ethyl]-2-[[(2S)-3-(difluoromethoxy)-2-[(2-mor-pholinoacetyl)amino]propanoyl]amino]-4 methyl-pentanamide] | −7.26 | >−4.00 | >−4.00 | −5.19 | >−4.00 | >−4.00
CC(C)C[C@H](NC(=O)[C@H](COC(F)F)NC(=O)[C@H](COC(F)F)NC(=O)[C@H](CCc1ccccc1)NC(=O)CN1CCOCC1)C(=O)[C@@]1(C)CO1 [Example 7, (2S)-N-[(1S)-1-(difluoromethoxymethyl)-2-[[(1S)-1-(difluoromethoxymethyl)-2-[[(1S)-3-methyl-1-[(2R)-2-methyloxirane-2-carbo-nyl]butyl]amino]-2-oxo-ethyl]amino]-2-oxo-ethyl]-2-[(2-morpholinoacetyl)amino]-4-phenyl-butanamide] | −7.37 | >−4.00 | >−4.00 | −5.16 | >−4.00 | >−4.00
CC(C)C[C@H](NC(=O)[C@H](Cc1ccccc1)NC(=O)[C@H](COC(F)F)NC(=O)[C@H](COC(F)F)NC(=O)CN1CCOCC1)C(=O)[C@@]1(C)CO1 [Example 11, (2S)-2-[[(2S)-3-(difluoromethoxy)-2-[[(2S)-3-(difluoromethoxy)-2-[(2-morpholinoacetyl)-amino]propanoyl]amino]propanoyl]amino]-N-[(1S)-3-methyl-1-[(2R)-2-methyloxirane-2-carbonyl]butyl]-3-phenyl-propanamide] | −7.36 | >−4.00 | >−4.00 | −5.16 | >−4.00 | >−4.00
CC(C)C[C@H](NC(=O)[C@H](COC(F)F)NC(=O)[C@H](COC(F)F)NC(=O)[C@H](COC(F)F)NC(=O)CN1CCOCC1)C(=O)[C@@]1(C)CO1 [Example 17, (2S)-3-(difluoromethoxy)-N-[(1S)-1-(difluoromethoxymethyl)-2-[[(1S)-1-(difluoro-methoxymethyl)-2-[[(1S)-3-methyl-1-[(2R)-2-methyloxirane-2-carbonyl]butyl]amino]-2-oxo-ethyl]amino]-2-oxo-ethyl]-2-[(2-mor-pholinoacetyl)amino]-propanamide] | −6.77 | – | >−4.00 | −4.50 | >−4.00 | >−4.00
